Laboratory results reported in publication PMC4809600, “The Influence of Chronic Wound Extracts on Inflammatory Cytokine and Histatin Stability” (PLoS ONE, 2016).
Where no end group is shown, it is not given here.

What was measured:
[1] = Stability in chronic wound extracts (CWE), capillary zone electrophoresis; type: in vitro ADME, human; settings: 37°C, CZE; for Percentage intact, CWE 2h / Percentage intact, CWE 4h / Percentage intact, CWE 8h / Percentage intact, CWE 16h / Percentage intact, CWE 24h / Percentage intact, CWE 48h / Percentage intact, CWE 72h / Percentage intact, CWE 96h: 1 mg/ml in PBS mixed 1:1 with CWE (1 mg/ml protein, pool of 5 donors) in PBS, UV 200 nm, ratio to imidazole
Excerpt: (§1) Debridement tissue was obtained from chronic ulcers of 15 patients with therapy resistant (arterio-venous) leg ulcers, according to procedures described earlier. In brief, moist, easily removable debridement material, essentially blood free, was collected from the ulcer surface and divided equally into two different solutions: (i) PBS (B. Braun, Melsungen, Germany), (ii) PBS with protease inhibitor cocktail (PIC) (1:100; v/v) (Sigma-Aldrich, Steinheim, Germany). The mixtures were gently shaken for 1 h at 4°C to elute proteins and centrifuged; the supernatants were stored at -80°C. Total protein content of the supernatant was measured using the BioRad Protein Assay (BioRad Laboratories, Hercules, California, USA) essentially as described by the supplier. Samples were diluted to 1 mg/ml protein and extracts of five different donors were pooled; three different pools of five donors were used in all experiments. The samples are referred to as chronic wound extracts (CWE).
(§2) To determine the stability of the different peptides in CWE, histatins and cytokines were dissolved in PBS at 1 mg/ml. Histatins and cytokines were incubated in a 1:1 ratio with (i) PBS, (ii) CWE in PBS, or (iii) CWE in PBS containing PIC, in a total volume of 25 μl. Imidazole (Sigma-Aldrich) was added as an internal standard, with a final concentration of 100 μg/ml. The mixtures were incubated at 37°C, and samples were taken at 0, 24, 48, 72 and 96 h. For histatins containing mixtures, additional samples were taken after 2, 4, 8 and 16 h of incubation.
(§3) The samples were analyzed with a BioFocus 2000 capillary zone electrophoresis system (Bio-Rad Laboratories, Hercules, CA, USA) equipped with an uncoated fused-silica capillary of internal diameter 50 μm and a length of 24 cm. Samples were loaded by pressure injection (5 psi/sec). Separation was performed at 10 kV (cathode at the detector side) at 20°C using 0.1 M phosphate buffer (pH 2.5) as electrolyte and monitored continuously at 200 nm. Peaks were quantified with the BioFocus Integrator software. In order to quantify the percentage of intact peptides remaining after incubation with CWE, the ratios of histatins, rhIL-6 or rhCXCL8 to internal standard was set at 100% at 0h, and the ratios at the other incubation time points were related to this.

[2] = Stability in CWE with protease inhibitor cocktail (PIC), capillary zone electrophoresis; type: in vitro ADME, human; settings: 37°C, CZE, 0 h = 100%; for Percentage intact, CWE + PIC 2h / Percentage intact, CWE + PIC 4h / Percentage intact, CWE + PIC 8h / Percentage intact, CWE + PIC 16h / Percentage intact, CWE + PIC 24h / Percentage intact, CWE + PIC 48h / Percentage intact, CWE + PIC 72h / Percentage intact, CWE + PIC 96h: 1 mg/ml in PBS mixed 1:1 with CWE (1 mg/ml protein, pool of 5 donors) in PBS containing PIC (final 1:140 v/v), ratio to imidazole
Excerpt: as §1, §2, §3

Percentage intact, CWE 2h ([1]; 0 h = 100%, experiment 1 of 3): 96.21%
Percentage intact, CWE 2h ([1]; 0 h = 100%, experiment 2 of 3): 97.4179%
Percentage intact, CWE 2h ([1]; 0 h = 100%, experiment 3 of 3): 80.1639%
Percentage intact, CWE 4h ([1]; 0 h = 100%, experiment 1 of 3): 78.5338%
Percentage intact, CWE 4h ([1]; 0 h = 100%, experiment 2 of 3): 80.0345%
Percentage intact, CWE 4h ([1]; 0 h = 100%, experiment 3 of 3): 54.5442%
Percentage intact, CWE 8h ([1]; 8 h, 0 h = 100%, experiment 1 of 3): 57.5027%
Percentage intact, CWE 8h ([1]; 8 h, 0 h = 100%, experiment 2 of 3): 66.6666%
Percentage intact, CWE 8h ([1]; 8 h, 0 h = 100%, experiment 3 of 3): 34.5662%
Percentage intact, CWE 16h ([1]; 0 h = 100%, experiment 1 of 3): 14.9136%
Percentage intact, CWE 16h ([1]; 0 h = 100%, experiment 2 of 3): 27.664%
Percentage intact, CWE 16h ([1]; 0 h = 100%, experiment 3 of 3): 7.724%
Percentage intact, CWE 24h ([1]; 24 h, 0 h = 100%, experiment 1 of 3): 4.675%
Percentage intact, CWE 24h ([1]; 24 h, 0 h = 100%, experiment 2 of 3): 5.495%
Percentage intact, CWE 24h ([1]; 24 h, 0 h = 100%, experiment 3 of 3): 8.834%
Percentage intact, CWE 48h ([1]; 0 h = 100%, experiment 2 of 3): 0.0001%
Percentage intact, CWE 48h ([1]; 0 h = 100%, experiment 3 of 3): 0.0001%
Percentage intact, CWE 72h ([1]; 0 h = 100%, experiment 2 of 3): 0.0001%
Percentage intact, CWE 72h ([1]; 0 h = 100%, experiment 3 of 3): 0.0001%
Percentage intact, CWE 96h ([1]; 0 h = 100%, experiment 2 of 3): 0.0001%
Percentage intact, CWE 96h ([1]; 0 h = 100%, experiment 3 of 3): 0.0001%
remaining at 8 h, 0.5 mg/ml ([1]; human, chronic wound extracts (CWE), 1 mg/ml in PBS mixed 1:1 with CWE (1 mg/ml protein, pools of 5 donors), 8 h, 0 h = 100%, mean of 3 independent experiments, read-out: Original amount of peptide remaining intact after 8 h in CWE): 53%
remaining at 24 h, 0.5 mg/ml ([1]; human, chronic wound extracts (CWE), 1 mg/ml in PBS mixed 1:1 with CWE (1 mg/ml protein, pools of 5 donors), 24 h, 0 h = 100%, mean of 3 independent experiments, read-out: Original amount of peptide remaining intact after 24 h in CWE): 6%
metabolised at 8 h, 0.5 mg/ml ([1]; human, chronic wound extracts (CWE), incubation with chronic wound extracts, 8 h, read-out: Breakdown (degradation) in CWE in 8 h): ~50%
Percentage intact, CWE + PIC 2h ([2]; experiment 1 of 3): 93.4426%
Percentage intact, CWE + PIC 2h ([2]; experiment 2 of 3): 92.5142%
Percentage intact, CWE + PIC 2h ([2]; experiment 3 of 3): 89.0301%
Percentage intact, CWE + PIC 4h ([2]; experiment 1 of 3): 91.5351%
Percentage intact, CWE + PIC 4h ([2]; experiment 2 of 3): 92.7977%
Percentage intact, CWE + PIC 4h ([2]; experiment 3 of 3): 86.7184%
Percentage intact, CWE + PIC 8h ([2]; experiment 1 of 3): 85.6684%
Percentage intact, CWE + PIC 8h ([2]; experiment 2 of 3): 89.4382%
Percentage intact, CWE + PIC 8h ([2]; experiment 3 of 3): 85.0239%
Percentage intact, CWE + PIC 16h ([2]; experiment 1 of 3): 76.054%
Percentage intact, CWE + PIC 16h ([2]; experiment 2 of 3): 80.3459%
Percentage intact, CWE + PIC 16h ([2]; experiment 3 of 3): 78.2959%
Percentage intact, CWE + PIC 24h ([2]; 24 h, experiment 1 of 3): 76.7074%
Percentage intact, CWE + PIC 24h ([2]; 24 h, experiment 2 of 3): 74.947%
Percentage intact, CWE + PIC 24h ([2]; 24 h, experiment 3 of 3): 84.5492%
Percentage intact, CWE + PIC 48h ([2]; experiment 1 of 3): 70.9832%
Percentage intact, CWE + PIC 48h ([2]; experiment 2 of 3): 66.2527%
Percentage intact, CWE + PIC 48h ([2]; experiment 3 of 3): 75.4922%
Percentage intact, CWE + PIC 72h ([2]; experiment 1 of 3): 69.8915%
Percentage intact, CWE + PIC 72h ([2]; experiment 2 of 3): 66.4949%
Percentage intact, CWE + PIC 72h ([2]; experiment 3 of 3): 68.9587%
Percentage intact, CWE + PIC 96h ([2]; experiment 1 of 3): 63.8972%
Percentage intact, CWE + PIC 96h ([2]; experiment 2 of 3): 62.3087%
Percentage intact, CWE + PIC 96h ([2]; experiment 3 of 3): 62.2105%
remaining at 24 h, 0.5 mg/ml ([2]; human, with protease inhibitor cocktail (PIC), CWE with protease inhibitor cocktail (final 1:140 v/v), 24 h, mean of 3 independent experiments, read-out: Remaining fraction of intact peptide after 24 h in CWE + PIC): 78%
Sequence: RKFHEKHHSHREFPFYGDYGSNYLYDN [Hst2]
